The source made the active and inactive calls. The rule behind the calls is not given here.
Assays:
[1] = molecular target: Ribosomal protein S6 kinase alpha-4 (Homo sapiens) (UniProt O75676); assay: Inhibition of MSK2 domain1 ATP Loop labeling site in human Huh-7 cells at 1 uM by KiNativ Profiling analysis relative to control; type: cell-based
RAW = assay: Inhibition of LPS induced p38 phosphorylation in mouse RAW cells preincubated for 1 hr followed by LPS stimulation and measured after 30 mins by Western blot analysis; type: functional, cell-based; conditions: dose 0.01-10 µM
[2] = molecular target: Atypical kinase COQ8A, mitochondrial (Homo sapiens) (UniProt Q8NI60); assay: Inhibition of ADCK3 (unknown origin) at 10 uM by Ambit Kinomescan binding assay
[3] = molecular target: Glycogen synthase kinase-3 alpha (Homo sapiens) (UniProt P49840); assay: Inhibition of GSK3A (unknown origin) at 10 uM by Ambit Kinomescan binding assay
[4] = molecular target: Serine/threonine-protein kinase pim-2 (Homo sapiens) (UniProt Q9P1W9); assay: Inhibition of PIM2 (unknown origin) at 10 uM by Ambit Kinomescan binding assay
[5] = molecular target: Serine/threonine-protein kinase N2 (Homo sapiens) (UniProt Q16513); assay: Inhibition of PKN2 (unknown origin) at 10 uM by Ambit Kinomescan binding assay
[6] = Inhibition of […] ATP labeling site in human Huh-7 cells at 1 uM by KiNativ Profiling analysis relative to control; conditions: condition cancer
[7] = molecular target: Serine/threonine-protein kinase TNNI3K (Homo sapiens) (UniProt Q59H18); assay: Inhibition of TNNI3K (unknown origin) at 10 uM by Ambit Kinomescan binding assay relative to control; values are per cent of control
[8] = molecular target: T1, Ephrin type-B receptor 2 (Homo sapiens) (UniProt P29323); assay: Inhibition of EPHB2 (unknown origin) at 1 uM by Ambit Kinomescan binding assay relative to control
T1 sequence (whole entry): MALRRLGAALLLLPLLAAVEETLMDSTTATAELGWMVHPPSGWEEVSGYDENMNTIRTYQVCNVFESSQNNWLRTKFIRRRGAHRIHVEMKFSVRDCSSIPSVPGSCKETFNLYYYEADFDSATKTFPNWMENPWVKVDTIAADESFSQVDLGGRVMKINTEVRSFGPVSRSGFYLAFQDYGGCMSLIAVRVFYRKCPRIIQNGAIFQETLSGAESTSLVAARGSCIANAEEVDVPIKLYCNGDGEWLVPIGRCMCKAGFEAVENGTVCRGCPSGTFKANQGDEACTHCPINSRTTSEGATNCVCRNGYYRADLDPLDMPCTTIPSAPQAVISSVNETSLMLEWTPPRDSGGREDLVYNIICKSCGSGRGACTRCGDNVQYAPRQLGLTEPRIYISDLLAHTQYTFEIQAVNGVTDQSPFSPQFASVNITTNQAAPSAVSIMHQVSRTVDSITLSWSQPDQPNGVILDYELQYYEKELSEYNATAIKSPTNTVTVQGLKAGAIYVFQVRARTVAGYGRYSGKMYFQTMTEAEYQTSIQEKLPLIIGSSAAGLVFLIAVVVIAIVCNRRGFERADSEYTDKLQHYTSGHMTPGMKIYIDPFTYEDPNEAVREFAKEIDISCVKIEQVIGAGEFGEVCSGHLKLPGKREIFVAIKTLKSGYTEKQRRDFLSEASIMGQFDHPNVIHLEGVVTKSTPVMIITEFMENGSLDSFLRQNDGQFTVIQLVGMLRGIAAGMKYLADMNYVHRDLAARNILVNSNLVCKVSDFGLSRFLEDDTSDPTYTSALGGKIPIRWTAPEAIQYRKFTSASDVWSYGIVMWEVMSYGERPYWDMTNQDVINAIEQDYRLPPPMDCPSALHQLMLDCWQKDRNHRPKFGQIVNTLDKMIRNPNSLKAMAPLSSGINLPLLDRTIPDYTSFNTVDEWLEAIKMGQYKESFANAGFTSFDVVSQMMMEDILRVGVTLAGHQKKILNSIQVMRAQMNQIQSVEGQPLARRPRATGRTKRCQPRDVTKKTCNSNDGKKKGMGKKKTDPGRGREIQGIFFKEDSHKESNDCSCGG

[9] = molecular target: T2, Inhibitor of nuclear factor kappa-B kinase subunit epsilon (Homo sapiens) (UniProt Q14164); assay: Inhibition of IKKe Lys2 labeling site in human A-375 cells at 5 uM by KiNativ Profiling analysis relative to control; type: cell-based
T2 sequence (whole entry): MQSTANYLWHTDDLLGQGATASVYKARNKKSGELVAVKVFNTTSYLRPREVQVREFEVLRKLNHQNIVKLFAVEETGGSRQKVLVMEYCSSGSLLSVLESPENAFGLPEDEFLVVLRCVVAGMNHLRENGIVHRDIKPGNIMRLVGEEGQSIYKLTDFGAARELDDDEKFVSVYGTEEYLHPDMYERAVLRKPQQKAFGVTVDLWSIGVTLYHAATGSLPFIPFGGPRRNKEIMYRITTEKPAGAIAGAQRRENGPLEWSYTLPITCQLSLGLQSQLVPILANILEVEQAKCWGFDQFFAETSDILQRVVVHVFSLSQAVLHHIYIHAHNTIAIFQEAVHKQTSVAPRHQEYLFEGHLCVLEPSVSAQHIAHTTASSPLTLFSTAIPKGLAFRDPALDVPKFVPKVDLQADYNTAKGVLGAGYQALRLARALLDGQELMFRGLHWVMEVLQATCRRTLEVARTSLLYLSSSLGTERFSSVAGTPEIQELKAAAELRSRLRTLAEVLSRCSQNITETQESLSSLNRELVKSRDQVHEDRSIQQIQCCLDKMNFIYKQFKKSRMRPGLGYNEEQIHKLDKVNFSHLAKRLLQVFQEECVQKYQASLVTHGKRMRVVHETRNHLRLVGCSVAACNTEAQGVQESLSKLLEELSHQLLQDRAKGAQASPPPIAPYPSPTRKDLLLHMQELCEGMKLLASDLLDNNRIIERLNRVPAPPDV

[10] = molecular target: Serine/threonine-protein kinase B-raf (Homo sapiens, UniProt P15056); assay: Inhibition of BRAF Lys2 labeling site in human A-375 cells at 0.05 uM by KiNativ Profiling analysis relative to control; type: cell-based
[11] = molecular target: Serine/threonine-protein kinase pim-2 (Homo sapiens) (UniProt Q9P1W9); assay: Inhibition of PIM2 (unknown origin) at 1 uM by Ambit Kinomescan binding assay relative to control; values are per cent of control
[12] = molecular target: Fibroblast growth factor receptor 1 (Homo sapiens) (UniProt P11362); assay: Inhibition of FGFR1 (unknown origin) at 1 uM by Ambit Kinomescan binding assay relative to control; values are per cent of control
Sequence of Fibroblast growth factor receptor 1 (Homo sapiens) (P11362 22-822 limits assumed): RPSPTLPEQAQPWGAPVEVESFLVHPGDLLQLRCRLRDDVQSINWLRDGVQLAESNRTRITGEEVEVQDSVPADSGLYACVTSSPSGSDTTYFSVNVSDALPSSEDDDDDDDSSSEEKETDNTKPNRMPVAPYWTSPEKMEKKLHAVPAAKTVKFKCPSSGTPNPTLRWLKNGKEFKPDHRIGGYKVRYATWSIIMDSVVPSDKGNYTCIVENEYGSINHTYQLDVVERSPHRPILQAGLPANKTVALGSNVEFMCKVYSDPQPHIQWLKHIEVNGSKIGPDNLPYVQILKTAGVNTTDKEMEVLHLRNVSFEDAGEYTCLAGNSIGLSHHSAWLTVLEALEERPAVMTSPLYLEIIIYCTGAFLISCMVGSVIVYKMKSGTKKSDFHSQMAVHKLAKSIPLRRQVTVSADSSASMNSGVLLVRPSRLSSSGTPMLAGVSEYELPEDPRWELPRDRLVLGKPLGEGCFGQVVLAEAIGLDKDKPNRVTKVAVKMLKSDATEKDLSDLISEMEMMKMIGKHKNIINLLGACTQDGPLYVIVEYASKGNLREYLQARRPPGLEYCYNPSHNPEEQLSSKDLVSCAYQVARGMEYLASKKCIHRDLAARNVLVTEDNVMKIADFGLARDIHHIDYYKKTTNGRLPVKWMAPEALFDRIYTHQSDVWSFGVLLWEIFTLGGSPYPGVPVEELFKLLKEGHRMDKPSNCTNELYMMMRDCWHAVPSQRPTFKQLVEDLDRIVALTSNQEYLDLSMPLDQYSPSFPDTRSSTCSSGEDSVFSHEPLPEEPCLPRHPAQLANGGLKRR

Sequence of Serine/threonine-protein kinase pim-2 (Homo sapiens) (Q9P1W9 whole entry, looked up): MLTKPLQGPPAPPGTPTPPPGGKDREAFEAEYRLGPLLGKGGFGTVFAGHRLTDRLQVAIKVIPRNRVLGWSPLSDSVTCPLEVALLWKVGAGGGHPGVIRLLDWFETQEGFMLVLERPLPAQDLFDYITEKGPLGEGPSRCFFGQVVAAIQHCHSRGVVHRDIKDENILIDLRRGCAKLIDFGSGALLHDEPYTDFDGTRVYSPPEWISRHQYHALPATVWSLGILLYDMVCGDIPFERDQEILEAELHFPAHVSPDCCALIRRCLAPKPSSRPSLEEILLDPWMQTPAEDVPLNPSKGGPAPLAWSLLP
Sequence of Serine/threonine-protein kinase N2 (Homo sapiens) (Q16513 whole entry, looked up): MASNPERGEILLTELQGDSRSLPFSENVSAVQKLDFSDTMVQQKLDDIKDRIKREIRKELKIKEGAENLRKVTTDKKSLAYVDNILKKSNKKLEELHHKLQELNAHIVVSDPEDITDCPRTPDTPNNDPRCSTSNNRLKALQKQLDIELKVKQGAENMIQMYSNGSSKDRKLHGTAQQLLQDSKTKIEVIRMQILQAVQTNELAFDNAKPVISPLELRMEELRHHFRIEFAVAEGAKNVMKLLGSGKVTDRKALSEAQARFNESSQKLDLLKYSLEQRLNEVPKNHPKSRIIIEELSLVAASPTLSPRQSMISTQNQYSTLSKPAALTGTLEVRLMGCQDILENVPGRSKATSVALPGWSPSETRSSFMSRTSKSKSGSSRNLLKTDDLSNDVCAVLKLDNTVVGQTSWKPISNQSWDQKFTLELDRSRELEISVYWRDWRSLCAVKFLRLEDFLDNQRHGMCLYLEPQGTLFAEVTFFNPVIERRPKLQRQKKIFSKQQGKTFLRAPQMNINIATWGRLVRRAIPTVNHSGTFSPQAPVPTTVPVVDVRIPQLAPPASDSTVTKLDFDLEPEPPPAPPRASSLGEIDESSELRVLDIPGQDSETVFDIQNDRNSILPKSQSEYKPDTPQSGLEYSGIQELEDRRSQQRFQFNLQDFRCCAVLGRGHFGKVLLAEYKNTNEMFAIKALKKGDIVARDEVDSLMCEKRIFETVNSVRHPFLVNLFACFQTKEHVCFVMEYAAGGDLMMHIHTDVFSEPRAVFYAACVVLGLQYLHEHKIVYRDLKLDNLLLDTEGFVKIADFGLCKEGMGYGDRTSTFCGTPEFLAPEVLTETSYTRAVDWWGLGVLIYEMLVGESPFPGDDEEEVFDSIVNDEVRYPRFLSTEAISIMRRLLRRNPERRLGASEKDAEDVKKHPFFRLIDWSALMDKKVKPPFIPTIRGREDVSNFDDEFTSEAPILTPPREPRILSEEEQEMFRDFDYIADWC
Sequence of Serine/threonine-protein kinase B-raf (P15056 whole entry): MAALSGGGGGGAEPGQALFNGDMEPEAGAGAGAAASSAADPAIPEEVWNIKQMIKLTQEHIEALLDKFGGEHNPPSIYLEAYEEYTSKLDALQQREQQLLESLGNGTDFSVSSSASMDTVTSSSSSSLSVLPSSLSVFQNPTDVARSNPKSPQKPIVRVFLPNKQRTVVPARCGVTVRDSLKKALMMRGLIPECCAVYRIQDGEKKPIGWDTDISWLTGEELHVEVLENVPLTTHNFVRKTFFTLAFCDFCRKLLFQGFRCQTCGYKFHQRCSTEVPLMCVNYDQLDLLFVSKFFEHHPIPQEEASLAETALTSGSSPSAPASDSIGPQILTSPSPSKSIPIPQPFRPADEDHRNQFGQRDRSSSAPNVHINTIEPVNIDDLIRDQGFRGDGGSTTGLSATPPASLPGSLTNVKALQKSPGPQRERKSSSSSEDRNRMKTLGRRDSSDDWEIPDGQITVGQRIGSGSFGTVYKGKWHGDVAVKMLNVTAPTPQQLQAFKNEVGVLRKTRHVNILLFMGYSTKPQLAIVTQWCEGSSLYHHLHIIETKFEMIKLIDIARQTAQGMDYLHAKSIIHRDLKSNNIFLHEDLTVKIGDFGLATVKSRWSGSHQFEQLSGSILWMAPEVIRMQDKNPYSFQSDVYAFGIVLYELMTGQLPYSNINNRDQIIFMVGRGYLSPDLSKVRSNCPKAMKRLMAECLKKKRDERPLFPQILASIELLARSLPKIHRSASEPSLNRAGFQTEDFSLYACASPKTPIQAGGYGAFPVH
Sequence of Atypical kinase COQ8A, mitochondrial (Homo sapiens) (Q8NI60 163-647 limits assumed): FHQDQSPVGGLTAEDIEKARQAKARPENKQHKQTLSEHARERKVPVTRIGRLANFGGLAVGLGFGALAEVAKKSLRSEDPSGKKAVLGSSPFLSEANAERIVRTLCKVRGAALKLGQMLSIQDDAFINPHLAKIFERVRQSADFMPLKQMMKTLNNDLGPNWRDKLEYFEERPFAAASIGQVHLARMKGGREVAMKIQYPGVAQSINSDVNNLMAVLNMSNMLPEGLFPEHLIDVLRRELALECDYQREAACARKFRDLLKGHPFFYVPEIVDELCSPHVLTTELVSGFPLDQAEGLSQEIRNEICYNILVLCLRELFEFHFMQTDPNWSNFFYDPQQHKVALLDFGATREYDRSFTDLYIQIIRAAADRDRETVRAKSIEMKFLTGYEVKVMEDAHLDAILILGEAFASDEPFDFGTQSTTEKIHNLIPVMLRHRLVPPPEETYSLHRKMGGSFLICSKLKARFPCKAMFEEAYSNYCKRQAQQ
Sequence of Ribosomal protein S6 kinase alpha-4 (Homo sapiens) (O75676 whole entry, looked up, the tested form may be a part): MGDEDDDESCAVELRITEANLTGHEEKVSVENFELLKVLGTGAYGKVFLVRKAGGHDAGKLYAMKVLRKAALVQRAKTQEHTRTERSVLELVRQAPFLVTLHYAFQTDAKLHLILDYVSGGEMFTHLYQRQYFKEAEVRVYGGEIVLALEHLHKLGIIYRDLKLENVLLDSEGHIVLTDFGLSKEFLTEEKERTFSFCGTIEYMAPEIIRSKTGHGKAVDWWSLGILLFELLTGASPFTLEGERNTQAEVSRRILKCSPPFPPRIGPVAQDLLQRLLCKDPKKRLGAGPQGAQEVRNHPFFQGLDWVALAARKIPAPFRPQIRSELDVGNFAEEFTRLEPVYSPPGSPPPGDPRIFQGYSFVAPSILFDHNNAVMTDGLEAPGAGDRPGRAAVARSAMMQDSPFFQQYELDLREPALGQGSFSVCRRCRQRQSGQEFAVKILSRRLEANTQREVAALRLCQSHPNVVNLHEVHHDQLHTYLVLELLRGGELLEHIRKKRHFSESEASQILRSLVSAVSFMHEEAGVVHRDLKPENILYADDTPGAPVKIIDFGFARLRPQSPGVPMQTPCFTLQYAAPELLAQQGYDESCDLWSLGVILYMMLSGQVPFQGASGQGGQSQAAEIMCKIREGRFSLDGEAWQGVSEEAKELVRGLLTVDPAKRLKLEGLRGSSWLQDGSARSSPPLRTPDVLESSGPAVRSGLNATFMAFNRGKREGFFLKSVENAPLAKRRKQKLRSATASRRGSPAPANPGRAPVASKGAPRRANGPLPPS
Sequence of Glycogen synthase kinase-3 alpha (Homo sapiens) (P49840 2-483 limits assumed): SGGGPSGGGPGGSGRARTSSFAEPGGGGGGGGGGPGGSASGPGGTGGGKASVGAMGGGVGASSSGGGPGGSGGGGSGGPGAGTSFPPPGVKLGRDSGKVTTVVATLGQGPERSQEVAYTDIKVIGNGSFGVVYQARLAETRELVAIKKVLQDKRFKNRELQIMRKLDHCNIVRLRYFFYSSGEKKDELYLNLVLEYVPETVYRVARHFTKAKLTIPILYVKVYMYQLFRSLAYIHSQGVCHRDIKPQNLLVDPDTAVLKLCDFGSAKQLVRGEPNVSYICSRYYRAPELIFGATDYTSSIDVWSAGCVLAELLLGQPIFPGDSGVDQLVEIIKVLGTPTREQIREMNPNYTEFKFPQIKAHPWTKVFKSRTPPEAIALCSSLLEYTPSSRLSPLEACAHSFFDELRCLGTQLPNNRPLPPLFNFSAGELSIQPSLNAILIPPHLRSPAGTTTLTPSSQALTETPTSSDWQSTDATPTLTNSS

CNc1cc(Oc2cc(C(=O)Nc3cc(N4CCN(C)CC4)cc(C(F)(F)F)c3)ccc2C)ncn1
inhibition [1]: 11.5%

CCN1CCN(Cc2ccc(NC(=O)c3ccc(C)c(Oc4ccnc5[nH]ccc45)c3)cc2C(F)(F)F)CC1
inhibition (RAW): Dose-Dependent Effect
inhibition [2]: inactive
inhibition [3]: inactive
inhibition [4]: inactive
inhibition [5]: inactive
inhibition at 1 µM [6]: -3.2%
residual activity [7]: 4.8%

CCN1CCN(Cc2ccc(NC(=O)c3ccc(C)c(/C=C/c4cnc5[nH]ccc5c4OC)c3)cc2C(F)(F)F)CC1
inhibition [8]: 5.8%
inhibition [9]: 37.6%
inhibition [10]: 29.6%
residual activity [11]: 100%
% of control [12]: 2.8%
